Measured values as given in ChEMBL document CHEMBL3769377, “A synthesis, in silico, in vitro and in vivo study of thieno[2,3-b]pyridine anticancer analogues” (Medchemcomm, 2015).

Experiments:
[1] = biological target: ALK tyrosine kinase receptor (Homo sapiens) (UniProt Q9UM73); test: Inhibition of human recombinant ALK assessed as residual activity at 10 uM after 1 hr by qPCR analysis relative to control
[2] = biological target: Tyrosine-protein kinase JAK2 (Homo sapiens) (UniProt O60674); test: Inhibition of human recombinant JAK2 (JH1 domain-catalytic) assessed as residual activity at 10 uM after 1 hr by qPCR analysis relative to control
[3] = biological target: Serine/threonine-protein kinase ULK2 (Homo sapiens) (UniProt Q8IYT8); test: Inhibition of human recombinant ULK2 assessed as residual activity at 10 uM after 1 hr by qPCR analysis relative to control
[4] = biological target: Mast/stem cell growth factor receptor Kit (Homo sapiens) (UniProt P10721); test: Inhibition of human recombinant KIT assessed as residual activity at 10 uM after 1 hr by qPCR analysis relative to control
[5] = biological target: Tyrosine-protein kinase BTK (Homo sapiens) (UniProt Q06187); test: Inhibition of human recombinant BTK assessed as residual activity at 10 uM after 1 hr by qPCR analysis relative to control
Sequence of Tyrosine-protein kinase BTK (Homo sapiens) (Q06187 whole entry, canonical isoform): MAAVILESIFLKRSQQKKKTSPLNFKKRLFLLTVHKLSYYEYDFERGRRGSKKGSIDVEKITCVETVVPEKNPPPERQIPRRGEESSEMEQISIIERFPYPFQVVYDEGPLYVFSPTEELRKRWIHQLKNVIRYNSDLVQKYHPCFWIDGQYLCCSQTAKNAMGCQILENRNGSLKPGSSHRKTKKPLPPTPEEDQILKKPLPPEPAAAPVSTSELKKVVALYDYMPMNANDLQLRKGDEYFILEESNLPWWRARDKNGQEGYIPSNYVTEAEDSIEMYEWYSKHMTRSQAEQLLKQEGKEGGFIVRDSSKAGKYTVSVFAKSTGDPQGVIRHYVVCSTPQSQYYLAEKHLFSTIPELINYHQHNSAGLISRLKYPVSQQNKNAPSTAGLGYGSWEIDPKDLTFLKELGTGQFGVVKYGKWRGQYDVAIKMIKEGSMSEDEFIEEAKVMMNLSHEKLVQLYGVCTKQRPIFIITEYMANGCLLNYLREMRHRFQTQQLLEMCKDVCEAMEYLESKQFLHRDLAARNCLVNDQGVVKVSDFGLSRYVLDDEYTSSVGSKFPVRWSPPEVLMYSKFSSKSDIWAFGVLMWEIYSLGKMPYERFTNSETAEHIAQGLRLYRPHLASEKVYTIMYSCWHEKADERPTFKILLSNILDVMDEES

[6] = biological target: Phosphatidylinositol 4,5-bisphosphate 3-kinase catalytic subunit alpha isoform (Homo sapiens) (UniProt P42336); test: Inhibition of human recombinant PIK3CA assessed as residual activity at 10 uM after 1 hr by qPCR analysis relative to control
[7] = biological target: Serine/threonine-protein kinase 32C (Homo sapiens) (UniProt Q86UX6); test: Inhibition of human recombinant YANK3 assessed as residual activity at 10 uM after 1 hr by qPCR analysis relative to control
Mus musculus = test: Toxicity in athymic nude/beige mouse xenografted with human 786-O cells assessed as signs of facial hirsutism at 0.16 mg/kg, ip qd after 24 days; assay type: organism-based, 786-0; settings: in vivo, 576 h
[8] = biological target: Serine/threonine-protein kinase STK11 (Homo sapiens) (UniProt Q15831); test: Inhibition of human recombinant LKB1 assessed as residual activity at 10 uM after 1 hr by qPCR analysis relative to control
Sequence of Serine/threonine-protein kinase STK11 (Homo sapiens) (Q15831 whole entry): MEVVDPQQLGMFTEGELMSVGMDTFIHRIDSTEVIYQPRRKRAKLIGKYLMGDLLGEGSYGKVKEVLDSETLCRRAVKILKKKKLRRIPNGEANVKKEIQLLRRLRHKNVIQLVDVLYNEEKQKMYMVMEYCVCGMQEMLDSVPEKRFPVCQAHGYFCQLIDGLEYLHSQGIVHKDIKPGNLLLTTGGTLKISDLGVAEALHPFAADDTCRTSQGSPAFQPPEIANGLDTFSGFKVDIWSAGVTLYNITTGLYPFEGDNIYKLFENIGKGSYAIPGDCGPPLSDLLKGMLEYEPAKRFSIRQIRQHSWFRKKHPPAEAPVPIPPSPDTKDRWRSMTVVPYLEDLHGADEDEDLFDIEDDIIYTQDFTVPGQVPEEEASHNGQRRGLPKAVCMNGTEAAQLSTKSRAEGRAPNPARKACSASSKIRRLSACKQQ

[9] = biological target: Platelet-derived growth factor receptor beta (Homo sapiens) (UniProt P09619); test: Inhibition of human recombinant PDGFRB assessed as residual activity at 10 uM after 1 hr by qPCR analysis relative to control
[10] = biological target: Dual specificity tyrosine-phosphorylation-regulated kinase 1B (Homo sapiens) (UniProt Q9Y463); test: Inhibition of human recombinant DYRK1B assessed as residual activity at 10 uM after 1 hr by qPCR analysis relative to control
[11] = biological target: Serine/threonine-protein kinase PAK 4 (Homo sapiens) (UniProt O96013); test: Inhibition of human recombinant PAK4 assessed as residual activity at 10 uM after 1 hr by qPCR analysis relative to control
[12] = biological target: Serine/threonine-protein kinase pim-1 (Homo sapiens) (UniProt P11309); test: Inhibition of human recombinant PIM1 assessed as residual activity at 10 uM after 1 hr by qPCR analysis relative to control
Sequence of Serine/threonine-protein kinase pim-1 (Homo sapiens) (P11309 whole entry, looked up): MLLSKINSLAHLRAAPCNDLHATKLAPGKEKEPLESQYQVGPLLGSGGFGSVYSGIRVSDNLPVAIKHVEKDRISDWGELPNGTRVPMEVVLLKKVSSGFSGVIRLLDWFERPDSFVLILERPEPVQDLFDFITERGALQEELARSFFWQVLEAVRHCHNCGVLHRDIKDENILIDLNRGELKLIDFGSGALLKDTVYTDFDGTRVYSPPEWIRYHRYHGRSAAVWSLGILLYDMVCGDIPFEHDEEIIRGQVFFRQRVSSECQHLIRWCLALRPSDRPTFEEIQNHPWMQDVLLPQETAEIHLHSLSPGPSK

[13] = biological target: Fibroblast growth factor receptor 3 (Homo sapiens) (UniProt P22607); test: Inhibition of human recombinant FGFR3 assessed as residual activity at 10 uM after 1 hr by qPCR analysis relative to control
[14] = biological target: Serine/threonine-protein kinase PLK3 (Homo sapiens) (UniProt Q9H4B4); test: Inhibition of human recombinant PLK3 assessed as residual activity at 10 uM after 1 hr by qPCR analysis relative to control
Sequence of Serine/threonine-protein kinase PLK3 (Homo sapiens) (Q9H4B4 whole entry, looked up): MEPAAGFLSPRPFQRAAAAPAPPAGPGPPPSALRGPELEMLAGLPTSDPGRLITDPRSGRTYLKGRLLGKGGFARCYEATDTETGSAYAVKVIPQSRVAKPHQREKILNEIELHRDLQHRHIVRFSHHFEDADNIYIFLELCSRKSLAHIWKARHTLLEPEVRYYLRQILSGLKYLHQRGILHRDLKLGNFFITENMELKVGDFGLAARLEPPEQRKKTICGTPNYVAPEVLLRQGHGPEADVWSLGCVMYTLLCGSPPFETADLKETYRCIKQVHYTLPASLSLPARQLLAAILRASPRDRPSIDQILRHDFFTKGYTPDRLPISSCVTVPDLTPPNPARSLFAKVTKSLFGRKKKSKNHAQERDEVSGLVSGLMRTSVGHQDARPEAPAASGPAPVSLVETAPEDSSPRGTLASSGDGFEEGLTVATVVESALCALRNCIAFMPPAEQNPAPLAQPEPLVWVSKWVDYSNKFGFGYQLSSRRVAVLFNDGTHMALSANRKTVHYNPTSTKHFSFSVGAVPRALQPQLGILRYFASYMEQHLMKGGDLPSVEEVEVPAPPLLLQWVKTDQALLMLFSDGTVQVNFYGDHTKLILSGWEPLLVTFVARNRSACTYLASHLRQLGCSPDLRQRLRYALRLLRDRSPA

[15] = biological target: Serine/threonine-protein kinase pim-3 (Homo sapiens) (UniProt Q86V86); test: Inhibition of human recombinant PIM3 assessed as residual activity at 10 uM after 1 hr by qPCR analysis relative to control
[16] = biological target: High affinity nerve growth factor receptor (Homo sapiens) (UniProt P04629); test: Inhibition of human recombinant TRKA assessed as residual activity at 10 uM after 1 hr by qPCR analysis relative to control
[17] = biological target: Cyclin-dependent kinase 16 (Homo sapiens) (UniProt Q00536); test: Inhibition of human recombinant PCTK1 assessed as residual activity at 10 uM after 1 hr by qPCR analysis relative to control
Sequence of Cyclin-dependent kinase 16 (Homo sapiens) (Q00536 whole entry): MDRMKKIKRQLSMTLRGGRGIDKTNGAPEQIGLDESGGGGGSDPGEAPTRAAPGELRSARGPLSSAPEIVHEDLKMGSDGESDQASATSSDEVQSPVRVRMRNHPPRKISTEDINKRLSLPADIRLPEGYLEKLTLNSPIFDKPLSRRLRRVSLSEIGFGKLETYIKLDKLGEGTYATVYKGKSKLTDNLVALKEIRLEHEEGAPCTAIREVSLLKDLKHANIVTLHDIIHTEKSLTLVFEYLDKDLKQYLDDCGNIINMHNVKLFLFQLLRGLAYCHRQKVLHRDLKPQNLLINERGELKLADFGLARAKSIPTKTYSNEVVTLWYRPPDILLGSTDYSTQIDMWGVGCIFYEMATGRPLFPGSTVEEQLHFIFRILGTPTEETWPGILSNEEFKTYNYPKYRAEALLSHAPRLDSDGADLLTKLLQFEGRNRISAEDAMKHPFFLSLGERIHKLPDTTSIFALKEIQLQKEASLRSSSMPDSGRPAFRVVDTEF

[18] = biological target: Tyrosine-protein kinase ABL1 (Homo sapiens) (UniProt P00519); test: Inhibition of human recombinant phosphorylated ABL1 assessed as residual activity at 10 uM after 1 hr by qPCR analysis relative to control
[19] = biological target: Mitogen-activated protein kinase 3 (Homo sapiens) (UniProt P27361); test: Inhibition of human recombinant ERK1 assessed as residual activity at 10 uM after 1 hr by qPCR analysis relative to control
[20] = biological target: 3-phosphoinositide-dependent protein kinase 1 (Homo sapiens) (UniProt O15530); test: Inhibition of human recombinant PDPK1 assessed as residual activity at 10 uM after 1 hr by qPCR analysis relative to control
[21] = tested on: Serine/threonine-protein kinase B-raf (Homo sapiens), P15056 [V600E]; test: Inhibition of human recombinant BRAF V600E mutant assessed as residual activity at 10 uM after 1 hr by qPCR analysis relative to control
[22] = biological target: Aurora kinase A (Homo sapiens) (UniProt O14965); test: Inhibition of human recombinant AURKA assessed as residual activity at 10 uM after 1 hr by qPCR analysis relative to control
[23] = biological target: Mitogen-activated protein kinase 11 (Homo sapiens) (UniProt Q15759); test: Inhibition of human recombinant p38beta assessed as residual activity at 10 uM after 1 hr by qPCR analysis relative to control
[24] = biological target: Atypical kinase COQ8A, mitochondrial (Homo sapiens) (UniProt Q8NI60); test: Inhibition of human recombinant ADCK3 assessed as residual activity at 10 uM after 1 hr by qPCR analysis relative to control
[25] = tested on: Tyrosine-protein kinase ABL1 (Homo sapiens), P00519 [T315I]; test: Inhibition of human recombinant phosphorylated ABL1 T315I mutant assessed as residual activity at 10 uM after 1 hr by qPCR analysis relative to control
[26] = biological target: Vascular endothelial growth factor receptor 2 (Homo sapiens) (UniProt P35968); test: Inhibition of human recombinant VEGFR2 assessed as residual activity at 10 uM after 1 hr by qPCR analysis relative to control
Sequence of Vascular endothelial growth factor receptor 2 (Homo sapiens) (P35968 whole entry): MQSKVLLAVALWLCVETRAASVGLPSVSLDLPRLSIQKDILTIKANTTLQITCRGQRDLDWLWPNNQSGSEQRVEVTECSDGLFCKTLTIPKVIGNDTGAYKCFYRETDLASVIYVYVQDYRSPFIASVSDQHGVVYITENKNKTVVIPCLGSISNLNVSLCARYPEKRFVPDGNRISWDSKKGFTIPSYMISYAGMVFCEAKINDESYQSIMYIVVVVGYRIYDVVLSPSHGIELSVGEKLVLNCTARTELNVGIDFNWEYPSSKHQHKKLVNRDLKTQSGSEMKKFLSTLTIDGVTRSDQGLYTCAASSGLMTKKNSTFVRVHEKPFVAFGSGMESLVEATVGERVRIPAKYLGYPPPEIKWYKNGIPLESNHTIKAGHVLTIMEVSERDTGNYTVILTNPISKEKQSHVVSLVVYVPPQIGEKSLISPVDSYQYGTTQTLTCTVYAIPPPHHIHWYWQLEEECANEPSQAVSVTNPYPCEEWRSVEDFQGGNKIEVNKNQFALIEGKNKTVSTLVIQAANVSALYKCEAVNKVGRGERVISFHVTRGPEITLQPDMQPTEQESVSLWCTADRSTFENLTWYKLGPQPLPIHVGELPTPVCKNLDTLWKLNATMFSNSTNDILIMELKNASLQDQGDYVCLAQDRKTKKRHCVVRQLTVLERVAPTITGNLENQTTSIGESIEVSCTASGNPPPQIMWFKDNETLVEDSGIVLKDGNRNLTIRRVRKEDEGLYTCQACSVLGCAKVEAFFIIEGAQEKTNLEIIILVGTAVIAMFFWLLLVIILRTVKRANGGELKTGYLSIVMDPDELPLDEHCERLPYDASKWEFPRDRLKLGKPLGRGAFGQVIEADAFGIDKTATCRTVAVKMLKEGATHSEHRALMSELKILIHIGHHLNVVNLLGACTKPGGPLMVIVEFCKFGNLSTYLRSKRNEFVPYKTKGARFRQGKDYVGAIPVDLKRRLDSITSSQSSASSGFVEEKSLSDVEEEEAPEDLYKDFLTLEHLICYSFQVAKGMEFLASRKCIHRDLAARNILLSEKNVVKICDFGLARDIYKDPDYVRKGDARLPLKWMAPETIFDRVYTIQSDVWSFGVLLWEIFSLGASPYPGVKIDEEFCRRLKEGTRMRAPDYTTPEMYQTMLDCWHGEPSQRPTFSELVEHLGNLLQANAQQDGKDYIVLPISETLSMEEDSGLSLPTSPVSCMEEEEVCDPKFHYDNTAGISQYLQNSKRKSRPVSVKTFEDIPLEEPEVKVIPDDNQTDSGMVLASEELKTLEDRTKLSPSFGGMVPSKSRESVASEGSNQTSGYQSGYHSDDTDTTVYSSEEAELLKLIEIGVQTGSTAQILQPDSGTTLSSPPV

[27] = biological target: Serine/threonine-protein kinase PAK 2 (Homo sapiens) (UniProt Q13177); test: Inhibition of human recombinant PAK2 assessed as residual activity at 10 uM after 1 hr by qPCR analysis relative to control
[28] = biological target: Platelet-derived growth factor receptor alpha (Homo sapiens) (UniProt P16234); test: Inhibition of human recombinant PDGFRA assessed as residual activity at 10 uM after 1 hr by qPCR analysis relative to control
Sequence of Platelet-derived growth factor receptor alpha (Homo sapiens) (P16234 whole entry): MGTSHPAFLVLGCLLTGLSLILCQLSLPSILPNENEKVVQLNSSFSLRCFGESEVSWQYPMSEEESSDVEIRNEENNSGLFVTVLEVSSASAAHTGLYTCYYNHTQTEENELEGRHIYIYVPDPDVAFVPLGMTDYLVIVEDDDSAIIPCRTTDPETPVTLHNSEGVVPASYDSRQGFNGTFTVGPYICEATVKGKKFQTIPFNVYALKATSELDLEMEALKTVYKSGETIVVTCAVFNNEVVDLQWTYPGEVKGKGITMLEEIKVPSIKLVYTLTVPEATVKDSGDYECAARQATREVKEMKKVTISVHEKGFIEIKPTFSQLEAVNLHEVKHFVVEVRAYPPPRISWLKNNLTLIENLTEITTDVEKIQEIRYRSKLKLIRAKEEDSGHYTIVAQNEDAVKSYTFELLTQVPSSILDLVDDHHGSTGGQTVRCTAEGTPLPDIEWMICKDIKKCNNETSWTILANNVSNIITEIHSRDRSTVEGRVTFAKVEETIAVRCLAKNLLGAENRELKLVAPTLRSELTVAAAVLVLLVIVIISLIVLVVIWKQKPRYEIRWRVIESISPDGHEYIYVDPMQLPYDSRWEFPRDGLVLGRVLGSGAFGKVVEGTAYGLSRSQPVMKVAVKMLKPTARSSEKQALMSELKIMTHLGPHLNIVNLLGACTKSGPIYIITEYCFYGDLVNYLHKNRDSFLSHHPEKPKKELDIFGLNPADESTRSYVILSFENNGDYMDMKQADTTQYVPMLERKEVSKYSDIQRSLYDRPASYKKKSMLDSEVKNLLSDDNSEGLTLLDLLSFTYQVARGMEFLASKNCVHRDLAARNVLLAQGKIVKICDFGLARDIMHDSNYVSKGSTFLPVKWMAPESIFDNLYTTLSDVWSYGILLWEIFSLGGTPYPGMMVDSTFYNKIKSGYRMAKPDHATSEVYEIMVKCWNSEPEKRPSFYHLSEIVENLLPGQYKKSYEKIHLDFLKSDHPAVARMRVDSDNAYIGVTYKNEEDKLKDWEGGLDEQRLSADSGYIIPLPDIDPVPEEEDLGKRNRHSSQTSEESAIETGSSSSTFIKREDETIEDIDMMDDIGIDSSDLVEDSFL

[29] = biological target: MAP kinase-interacting serine/threonine-protein kinase 2 (Homo sapiens) (UniProt Q9HBH9); test: Inhibition of human recombinant MKNK2 assessed as residual activity at 10 uM after 1 hr by qPCR analysis relative to control

Cc1c(Cl)cccc1NC(=O)c1sc2nc3c(cc2c1N)C(=O)CC3
Activity [1]: 100% | Activity [2]: 94% | Activity [3]: 97% | Activity [4]: 95% | Activity [5]: 100% | Activity [6]: 100% | Activity [7]: 62% | Activity (Mus musculus): Toxic | Activity [8]: 76% | Activity [9]: 95% | Activity [10]: 57% | Activity [11]: 85% | Activity [12]: 73% | Activity [13]: 100% | Activity [14]: 100% | Activity [15]: 92% | Activity [16]: 84% | Activity [17]: 100% | Activity [18]: 100% | Activity [19]: 98% | Activity [20]: 100% | Activity [21]: 90% | Activity [22]: 98% | Activity [23]: 100% | Activity [24]: 96% | Activity [25]: 90% | Activity [26]: 100% | Activity [27]: 95% | Activity [28]: 100% | Activity [29]: 91%
